Data as given in ChEMBL document CHEMBL1139960 (Bioorg Med Chem Lett, 2007).
Active and inactive are the calls of the source. No cut-off for these calls is given here.

What was measured:
[1] = (§1) Antagonist activity at GABAC rho1 receptor expressed in Xenopus laevis oocytes assessed as reduction of GABA-induced chloride ion currents; format: functional, cell-based; details: Homo sapiens, Oocyte
Oocyte [2] = assay: as §1; format: functional, cell-based; details: Homo sapiens
Oocyte [3] = assay: Activity at GABAC rho1 receptor expressed in Xenopus laevis oocytes assessed as activation of GABA-induced chloride ion currents; format: cell-based; details: Homo sapiens

Row | SMILES | IC50 [1] [µM] | Activity (Oocyte [2]) | Activity (Oocyte [3])
1 | CP(=O)(O)C1=CCNCC1 | 0.67 | – | –
2 | CCCCP(=O)(O)OCCN | 68.2 | – | –
3 | NCCOP(=O)(O)Cc1ccccc1 | – | inactive | inactive
